In assay [1] the test system is MDA-MB-231 cells. Description: Levels of SM in cell membranes, MDA-MB-231. Type of assay: cell-based, human. The note with it: MDA-MB-231, 200 μM [−]2OHOA. As to the method:
(§1) The levels of SM, cultivated in the absence (control) or presence of 200 μM of [−]2OHOA, in normal cell membranes (MRC-5 and IMR90) were measured, and also in several types of tumoral cells (see Table 2). In all cases, we detected that the membranes of tumoral cells have SM levels of about half or a third of that in normal cells (FIG. 1). We can therefore assert that SM concentration is a biomarker which indicates tumorgenesis in human cells. On the other hand, treatments with the molecules of the present invention induce an increase of SM in the tumour cells which is not naturally occurring. […] For example, the spectrophotometry determination of solution fluorescence of the SM levels is a very simple, quick and efficient analysis method (FIG. 1D). Thus, this invention has generated a method for diagnosis for detecting the described pathological processes and pathologies in which there are SM level changes, and also for monitoring the efficiency of the therapy using molecules of the present invention and others of similar activity. Based on this knowledge, this invention also includes kits for diagnosing these diseases.

Assay [2] has as its system 1321N1 cells. Description: Cell growth inhibition, 1321N1. Type of assay: cell-based, human. On the set-up: key: +: inhibition of cell growth; −: absence of effect.
Assay [3] deals with IMR90 cells. Nature of the assay: Levels of SM in cell membranes, IMR90. Type of assay: cell-based, human. The note with it: IMR90 non-tumoral fibroblast, 200 μM [−]2OHOA. As to the method: as §1
In assay [4] the test system is HeLa cells. Description: Levels of SM in cell membranes, HeLa. Type of assay: cell-based, human. The note with it: 200 μM [−]2OHOA. As to the method:
as §1

Assay [5] has as its system human lung tumour sections (A549 cells). Description: SM marking (lysenin) in A549 tumour sections from treated mice. The conditions noted are these: 600 or 900 mg/kg per day, oral, 50 days. Type of assay: in vivo. As to the method: C. Upper panel: specific marking by immunocytochemical techniques of the SM (left: lysenin followed by an antibody marked with Alexa 488 fluorophore), of nuclear DNA with Hoechst 33258 (center: Hoechst) or both (right, merge). Figures correspond to human lung tumour sections (A549 cells) formed in immuno-depressed mice treated with a vehicle (control) or with [−]2OHOA at 600 mg/kg per day or at 900 mg/kg per day (oral administration, 50 days).
Bottom panel: The ordinate axis represents the quantification of the fluorescence intensity (arbitrary units) by confocal microscopy in slices of tumours shown in the upper panel (average+average standard deviation), coming from animals treated with a vehicle, or 2OHOA at 600 mg/kg per day (T600) or 900 mg/kg per day (T900) during 50 days. *** P<0.001.

The test system of assay [6] is C-6 cells. Description: Cell growth inhibition, C-6. Type of assay: cell-based, rat. On the set-up: key: +: inhibition of cell growth; −: absence of effect.
Assay [7] concerns enzyme EC 2.7.8.27. Description: Activity of enzyme EC 2.7.8.27 in U118 cells (NBD-Cer to NBD-SM). The conditions noted are these: U118, 200 μM, 5 minutes to 24 hours. Type of assay: cell-based, human. As to the method:
FIG. 4. Compound 2OHOA acts directly on enzyme EC 2.7.8.27. In A, B, C, in all cases, we incubated cells or cellular extracts or means of incubation with the fluorescent stratum of this enzyme NBD-Cer (nitro-benzoxadiazol-il) ceramide], in the presence or absence (control, white bars) of 2OHOA (black bars). Then, we extracted the lipids and determined the levels of formation of NBD-SM per HPTLC (HP-TLC, high performance thin layer chromatography). The values are presented on the ordinate axis as the average±ESM (n=3-5).
A. In vivo experiment of the activity of enzyme EC 2.7.8.27: we incubated U118 cells with NBD-Cer for 4 hours and then treated them with compound 2OHOA (200 μM) for different periods of time (5, 15, 60 minutes y 24 hours). Later, the cells homogenised and we measured the metabolisation of fluorofor NBD-Cer to become NBD-SM.
The speed of the phenomenon clearly indicates direct and effective interaction between enantiomer 2OHOA and enzyme EC 2.7.8.27. So, this invention refers to the use of the aforementioned compounds as activators (enantiomer [−]), or inhibitors (enantiomer [+]) specific to enzyme EC 2.7.8.27.

For assay [8], the system named is enzyme EC 1.14.19.1. Nature of the assay: [3H]oleate incorporation in U118 cell membranes. Type of assay: cell-based, human. The conditions noted are these: U118, 200 μM, 24 h. As to the method:
FIG. 10. Regulation of the activity of enzyme 1.14.19.1.
Oleic acid is synthesised from esteric acid by the activity of the estearoil-CoA desaturase enzyme (EC 1.14.19.1). This enzyme is crucial in lipid metabolism, as it is a limitant in the synthesis of fatty acids. To see whether this reduction was due to regulation of enzyme EC 1.14.19.1, we incubated U118 cells in the presence or absence of 2OHOA (200 μM, 24 h) and, later, in the presence of [^3H]oleate (5 minutes).

For the compound `CCCCCCCC/C=C\CCCCCCC(O)C(=O)O` (centres unmarked) [[−]2OHOA] [[−] HOOC—HOCH—(CH2)6—(CH═CH—CH2)1—(CH2)6—CH3], the “% SM after treatment” value in assay [1] is reported as 31%; in assay [3], 23%; in assay [4], 21%. Further, the “Effect (anti-proliferation effect)” value in assay [2] and in assay [6] was “+” each time. Moreover, the “levels of SM in A549 tumours” value in assay [5] is listed as “levels of SM significantly increase”.

With `CCCCCCCC/C=C\CCCCCCC(O)C(=O)O` (racemic) [2OHOA, 2-hydroxyoleic acid], the “activation of enzyme EC 2.7.8.27 in cell cultures” value in assay [7] is “enzymatic activation is visible from the first few minutes of incubation”. The “incorporation of radioactive oleic acid in cell membranes” value in assay [8] is reported as “significantly less than in control cells”.
